The record followed here is US8895571B2, “Isoindolinone and pyrrolopyridinone derivatives as Akt inhibitors” (Incyte Corporation, priority 2011, dated 2014).

What all share (assay type): biochemical
One assay addresses T1, Full length Akt1 (Homo sapiens, UniProt P31749).
T1 construct: Full length Akt1 (cat #P2999); purchased PerkinElmer P2999
As to the kind of experiment: In vitro Akt kinase enzymatic assay (HTRF), Akt1. Particulars: 0.4 nM Akt1, substrate solution with 5 mM ATP, 25° C. 1 hr. The protocol: (§1) Compounds herein were tested for inhibitory activity of Akt targets according to the following in vitro assay. Full length Akt1 (cat #P2999), Akt2 (cat #PV3184), Akt3 (cat #PV3185), peptide substrate, Ulight-Crosstide (cat #TRF0106-M), Ultra-Europium anti-phospho-Crosstide (cat #TRF-0202-M), and 10×LANCE detection buffer (cat #CR97-100) were purchased from PerkinElmer. In general, assay buffer conditions were chosen based on obtaining optimal enzymatic and linear activities. The assay buffer contains 50 mM HEPES, 10 mM MgCl2, 5 mM DTT, 0.005% Tween20 at pH 7.8. Compound stock (0.001 mM) was prepared in DMSO. The compound plate was prepared by 3-fold and 11-point serial dilutions. 0.5 μL of the compound in DMSO was transferred from the compound plate to the assay plate. Enzyme solution (0.4 nM of Akt1, 0.6 nM of Akt2 or 0.6 nM of Akt3) was prepared in the assay buffer. Note that the enzyme concentration given is based on the given stock concentration reported by the vendor. 0.1 μM substrate solution was prepared in the assay buffer with addition of 5 mM ATP. 10 μL of the enzyme solution was added to the assay plate and then 10 μL of substrate solution was added to the assay plate. The plate was protected from light and the reaction was incubated at 25° C. for 1 hr. The reaction was stopped by adding 10 μL of a solution containing 30 mM EDTA, and 3 nM Ultra Europium anti-phospho Crosstide in 1× detection buffer. The plate was incubated for 15-30 min at room temperature and HTRF (homogenous time resolved fluorescence) was measured on a plate reader. Percentage of inhibition was calculated for each concentration and IC50 value was generated from curve fitting. See Table 8 for data related to compounds of the examples.
(TR-FRET usually uses a lanthanide donor and a delayed reading to cut background.)

The next assay concerns the target T2, Full length Akt2 (Homo sapiens, UniProt P31751).
T2 construct: Full length Akt1 (cat #P2999), Akt2 (cat #PV3184); purchased PerkinElmer PV3184
As to the kind of experiment: In vitro Akt kinase enzymatic assay (HTRF), Akt2. The following applies: 0.6 nM Akt2, substrate solution with 5 mM ATP, 25° C. 1 hr. The protocol:
as §1

The target in the next assay is T3, Full length Akt3 (Homo sapiens, UniProt Q9Y243).
T3 construct: Full length Akt1 (cat #P2999), Akt2 (cat #PV3184), Akt3 (cat #PV3185); purchased PerkinElmer PV3185
As to the kind of experiment: In vitro Akt kinase enzymatic assay (HTRF), Akt3. The following applies: 0.6 nM Akt3, substrate solution with 5 mM ATP, 25° C. 1 hr. The protocol: as §1

A further assay deals with T4, Full length PKA (Homo sapiens, UniProt P17612).
T4 construct: Full length PKA (cat #P2912); purchased Invitrogen P2912
Briefly: PKA in vitro enzymatic assay (HTRF). The following applies: 0.035 nM enzyme solution, substrate solution with 5 mM ATP, 25° C. 1 hr. The protocol: Full length PKA (cat #P2912), peptide substrate, fluorescein CREBtide peptide (cat #PV3508), Tb-Crebtide p-S133 Ab (cat #PV3566), and Lanthascreen TR-FRET Dilution Buffer stored (part # PV3574) were purchased from Invitrogen. In general, assay buffer conditions were chosen based on obtaining optimal and linear enzymatic activities. The assay buffer contains 50 mM HEPES, 10 mM MgCl2, 5 mM DTT, 0.005% Tween20 at pH 7.8. Compound stock (0.001 mM) was prepared in DMSO. The compound plate was prepared by 3-fold and 11-point serial dilutions. 0.5 μL of the compound in DMSO was transferred from the compound plate to the assay plate. 0.035 nM enzyme solution was prepared in the assay buffer. Note that the enzyme concentration given is based on the given stock concentration reported by the vendor. 0.1 μM substrate solution was prepared in the assay buffer with addition of 5 mM ATP. 10 μL of the enzyme solution was added to the assay plate and then 10 μL of substrate solution was added to the assay plate. The plate was protected from light and the reaction was incubated at 25° C. for 1 hr. The reaction was stopped by adding 10 μL of a solution containing 30 mM EDTA, and 1.5 nM Tb-Crebtide p-S133 Ab in 1× detection buffer. The plate was incubated for 15-30 min at room temperature and HTRF (homogenous time resolved fluorescence) was measured on a plate reader. Percentage of inhibition was calculated for each concentration and IC50 value was generated from curve fitting. See Table 8 for data related to compounds of the examples.

For orientation: pIC50 means the IC50 on a negative log10 scale, so that one unit is a factor of ten. A lower pIC50 goes with a large IC50.

pIC50: −log10 of the molar value.

T1 sequence (P31749 whole entry): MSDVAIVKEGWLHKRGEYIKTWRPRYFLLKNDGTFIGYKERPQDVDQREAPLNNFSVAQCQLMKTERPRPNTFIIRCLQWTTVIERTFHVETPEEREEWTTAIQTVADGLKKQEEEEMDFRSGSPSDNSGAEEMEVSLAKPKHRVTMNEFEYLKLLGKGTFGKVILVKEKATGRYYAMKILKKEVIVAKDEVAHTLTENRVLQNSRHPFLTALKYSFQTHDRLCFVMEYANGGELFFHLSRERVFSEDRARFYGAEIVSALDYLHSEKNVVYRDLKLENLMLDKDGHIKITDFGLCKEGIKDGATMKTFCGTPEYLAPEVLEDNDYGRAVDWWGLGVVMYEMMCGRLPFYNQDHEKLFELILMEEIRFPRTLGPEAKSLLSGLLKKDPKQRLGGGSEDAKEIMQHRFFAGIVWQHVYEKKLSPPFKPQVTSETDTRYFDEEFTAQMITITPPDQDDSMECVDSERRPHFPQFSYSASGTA
T2 sequence (P31751 whole entry): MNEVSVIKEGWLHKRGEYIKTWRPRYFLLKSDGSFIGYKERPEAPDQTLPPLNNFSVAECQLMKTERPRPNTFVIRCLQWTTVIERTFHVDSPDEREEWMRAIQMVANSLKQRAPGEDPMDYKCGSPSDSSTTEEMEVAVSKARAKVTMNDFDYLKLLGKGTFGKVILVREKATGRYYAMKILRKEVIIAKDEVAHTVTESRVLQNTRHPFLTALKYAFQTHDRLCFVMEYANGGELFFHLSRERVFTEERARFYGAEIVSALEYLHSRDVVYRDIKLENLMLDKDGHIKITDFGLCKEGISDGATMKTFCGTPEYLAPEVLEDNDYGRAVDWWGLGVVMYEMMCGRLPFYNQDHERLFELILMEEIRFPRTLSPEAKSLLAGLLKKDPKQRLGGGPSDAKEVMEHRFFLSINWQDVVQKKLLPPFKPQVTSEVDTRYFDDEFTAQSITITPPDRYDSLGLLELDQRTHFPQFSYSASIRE
T3 sequence (Q9Y243 whole entry): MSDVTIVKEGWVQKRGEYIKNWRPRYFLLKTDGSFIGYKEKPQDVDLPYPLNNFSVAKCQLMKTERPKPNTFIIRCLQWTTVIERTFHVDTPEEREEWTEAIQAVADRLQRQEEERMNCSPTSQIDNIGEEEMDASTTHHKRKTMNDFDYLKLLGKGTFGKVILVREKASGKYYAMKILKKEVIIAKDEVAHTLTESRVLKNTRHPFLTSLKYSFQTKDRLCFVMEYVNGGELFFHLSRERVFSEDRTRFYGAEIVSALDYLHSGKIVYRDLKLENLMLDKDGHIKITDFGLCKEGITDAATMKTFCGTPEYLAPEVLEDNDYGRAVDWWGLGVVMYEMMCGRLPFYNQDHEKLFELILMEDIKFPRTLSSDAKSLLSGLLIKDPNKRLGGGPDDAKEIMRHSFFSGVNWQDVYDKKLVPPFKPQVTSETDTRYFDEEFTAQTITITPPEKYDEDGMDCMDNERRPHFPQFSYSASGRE

With `Cn1ncc(-c2cccs2)c1-c1ccc2c(c1)CN([C@H](CN)Cc1cccc(F)c1)C2=O` [Example 15, 2-[(1S)-2-amino-1-(3-fluorobenzyl)ethyl]-5-[1-methyl-4-(2-thienyl)-1H-pyrazol-5-yl]isoindolin-1-one], the pIC50 on Full length Akt1 is 5.30 to 6.30; against Full length Akt2, under 5.30; against Full length Akt3 it was over 6.30; on Full length PKA it was under 5.30.

Take `COc1cccc(C(CN)N2Cc3cc(-c4ccnn4C)ccc3C2=O)c1` (centres unmarked) [Example 119, 2-[2-amino-1-(3-methoxyphenyl)ethyl]-5-(1-methyl-1H-pyrazol-5-yl)isoindolin-1-one]: the pIC50 is over 6.30 against Full length Akt1, over 6.30 against Full length Akt2, 5.30 to 6.30 against Full length Akt3 and 5.30 to 6.30 against Full length PKA.

With `Cn1ncc(Cl)c1-c1ccc2c(c1)CN([C@H](CN)CC1CC1)C2=O` [Example 137, 2-[(1S)-2-amino-1-(cyclopropylmethyl)ethyl]-5-(4-chloro-1-methyl-1H-pyrazol-5-yl)isoindolin-1-one], the pIC50 is 5.30 to 6.30 at Full length Akt1, 5.30 to 6.30 on Full length Akt2, 5.30 to 6.30 on Full length Akt3 and under 5.30 against Full length PKA.

Regarding `COc1ccc(C(CN)N2Cc3cc(-c4ccnn4C)ccc3C2=O)cc1` (centres unmarked) [Example 120, 2-[2-amino-1-(4-methoxyphenyl)ethyl]-5-(1-methyl-1H-pyrazol-5-yl)isoindolin-1-one], the pIC50 at Full length Akt1, on Full length Akt2, at Full length Akt3 and against Full length PKA was under 5.30 throughout.

Take `CC(C)NC[C@H](Cc1cccc(F)c1)N1Cc2cc(-c3c(Cl)cnn3C)ccc2C1=O` [Example 32, 5-(4-chloro-1-methyl-1H-pyrazol-5-yl)-2-[(1S)-1-(3-fluorobenzyl)-2-(isopropylamino)ethyl]isoindolin-1-one]: the pIC50 on Full length Akt1 was 5.30 to 6.30; at Full length Akt2, 5.30 to 6.30; against Full length Akt3, 5.30 to 6.30; against Full length PKA, under 5.30.

As for `Cn1ncc(-c2cccnc2F)c1-c1ccc2c(c1)CN([C@H](CN)Cc1cccc(F)c1)C2=O` [Example 24, 2-[(1S)-2-amino-1-(3-fluorobenzyl)ethyl]-5-[4-(2-fluoropyridin-3-yl)-1-methyl-1H-pyrazol-5-yl]isoindolin-1-one], the pIC50 on Full length Akt1, on Full length Akt2, against Full length Akt3 and against Full length PKA was under 5.30 in each case.

With `Cn1ncc(-c2ccsc2)c1-c1ccc2c(c1)CN([C@H](CN)Cc1cccc(F)c1)C2=O` [Example 16, 2-[(1S)-2-amino-1-(3-fluorobenzyl)ethyl]-5-[1-methyl-4-(3-thienyl)-1H-pyrazol-5-yl]isoindolin-1-one], the pIC50 was 5.30 to 6.30 at Full length Akt1, 5.30 to 6.30 against Full length Akt2, over 6.30 against Full length Akt3 and under 5.30 against Full length PKA.

With `Cn1nccc1-c1ccc2c(c1)CN([C@H](CN)Cc1cscn1)C2=O` [Example 82, 2-[(1S)-2-amino-1-(1,3-thiazol-4-ylmethyl)ethyl]-5-(1-methyl-1H-pyrazol-5-yl)isoindolin-1-one], the pIC50 is over 6.30 against Full length Akt1, 5.30 to 6.30 against Full length Akt2, 5.30 to 6.30 against Full length Akt3 and under 5.30 against Full length PKA.

Consider `Cn1nccc1-c1ccc2c(n1)CN([C@H](CN)Cc1ccccc1)C2=O` [Example 111, 6-[(1S)-2-amino-1-benzylethyl]-2-(1-methyl-1H-pyrazol-5-yl)-6,7-dihydro-5H-pyrrolo[3,4-b]pyridin-5-one], for which the pIC50 was 5.30 to 6.30 against Full length Akt1, 5.30 to 6.30 against Full length Akt2, under 5.30 against Full length Akt3 and under 5.30 against Full length PKA.

Turning to `Cn1nccc1-c1cnn(C)c1-c1ccc2c(c1)CN([C@H](CN)Cc1cccc(F)c1)C2=O` [Example 17, 2-[(1S)-2-amino-1-(3-fluorobenzyl)ethyl]-5-(1′,2-dimethyl-1′H,2H-3,4′-bipyrazol-5′-yl)isoindolin-1-one], the pIC50 against Full length Akt1, on Full length Akt2, against Full length Akt3 and against Full length PKA was under 5.30 throughout.

In the case of `Cn1ncc(Cl)c1-c1ncc2c(n1)CN([C@H](CN)Cc1ccccc1)C2=O` [Example 113, 6-[(1S)-2-amino-1-benzyl-ethyl]-2-(4-chloro-1-methyl-1H-pyrazol-5-yl)-6,7-dihydro-5H-pyrrolo[3,4-d]pyrimidin-5-one], the pIC50 at Full length Akt1 is over 6.30; against Full length Akt2, 5.30 to 6.30; on Full length Akt3, 5.30 to 6.30; on Full length PKA, under 5.30.

Consider `CSCc1cnn(C)c1-c1ccc2c(c1)CN([C@H](CN)Cc1ccccc1)C2=O` [Example 59, 2-[(1S)-2-amino-1-benzyl-ethyl]-5-[4-(methylthiomethyl)-1-methyl-1H-pyrazol-5-yl]isoindolin-1-one], for which the pIC50 against Full length Akt1 is over 6.30; at Full length Akt2 it was 5.30 to 6.30; against Full length Akt3 it was 5.30 to 6.30; against Full length PKA it was under 5.30.

Turning to `CN1CCC(NC[C@H](Cc2cccc(F)c2)N2Cc3cc(-c4c(Cl)cnn4C)ccc3C2=O)CC1` [Example 37, 5-(4-chloro-1-methyl-1H-pyrazol-5-yl)-2-{(1S)-1-(3-fluorobenzyl)-2-[(1-methylpiperidin-4-yl)amino]ethyl}isoindolin-1-one], the pIC50 against Full length Akt1 was over 6.30; against Full length Akt2 it was 5.30 to 6.30; against Full length Akt3 it was 5.30 to 6.30; on Full length PKA it was under 5.30.

As for `Cn1ncc(-c2ccc3ccccc3c2)c1-c1ccc2c(c1)CN([C@H](CN)Cc1cccc(F)c1)C2=O` [Example 21, 2-[(1S)-2-amino-1-(3-fluorobenzyl)ethyl]-5-[1-methyl-4-(2-naphthyl)-1H-pyrazol-5-yl]isoindolin-1-one], the pIC50 is 5.30 to 6.30 at Full length Akt1, under 5.30 on Full length Akt2, over 6.30 at Full length Akt3 and under 5.30 at Full length PKA.

For the compound `Cn1ncc(Cl)c1-c1ccc2c(n1)CN([C@H](CN)Cc1cccc(F)c1)C2=O` [Example 109, 6-[(1S)-2-amino-1-(3-fluorobenzyl)ethyl]-2-(4-chloro-1-methyl-1H-pyrazol-5-yl)-6,7-dihydro-5H-pyrrolo[3,4-b]pyridin-5-one], the pIC50 at Full length Akt1 is over 6.30; on Full length Akt2, 5.30 to 6.30; against Full length Akt3, 5.30 to 6.30; against Full length PKA, under 5.30.

On to `Cn1ncc(Cl)c1-c1ccc2c(c1)CN([C@H](CN)Cc1ccc(C#N)cc1)C2=O` [Example 63, 4-{(2S)-3-amino-2-[5-(4-chloro-1-methyl-1H-pyrazol-5-yl)-1-oxo-1,3-dihydro-2H-isoindol-2-yl]propyl}benzonitrile], for which the pIC50 was over 6.30 on Full length Akt1, 5.30 to 6.30 against Full length Akt2, 5.30 to 6.30 at Full length Akt3 and under 5.30 against Full length PKA.

As to `Cn1ncc(Cl)c1-c1ccc2c(c1)CN(C(CN)c1ccccc1)C2=O` (stereo in doubt) [Example 114, 2-[(1R)-2-amino-1-phenylethyl]-5-(4-chloro-1-methyl-1H-pyrazol-5-yl)isoindolin-1-one], the negative logarithm of the IC50 (pIC50) at Full length Akt1 is over 6.30; at Full length Akt2, 5.30 to 6.30; against Full length Akt3 it was 5.30 to 6.30; on Full length PKA, under 5.30.
